For 20 molecules, IC50 results are on record in patent US20250122207A1, “AP2 ASSOCIATED KINASE 1 INHIBITORS AND USES THEREOF” (Satellos Bioscience Inc., priority 2023, published 2025).

Each structure is given as a SMILES string.

For assay [1], the target named is T1, AAK1 (amino acids T27-A365) (Homo sapiens, UniProt Q2M2I8).
T1 construct: against AAK1 (amino acids T27-A365); 6His (N, cleaved yes)
The experiment in a line: AAK1 pSENs assay. It counts as biochemical. Particulars: class symbols; read-out: AAK1 pSENs: EIC50. On the procedure: The recombinant proteins were independently expressed in Escherichia coli BL21(DE3) cells cultured in Luria-Bertani (LB) medium until OD600 reached 0.6-0.8, then cooled to 15° C. and supplemented with 0.5 mM isopropyl 1-thio-D-galactopyranoside (IPTG) induce protein expression 16 h. Cells were harvested and resuspended in lysis buffer (50 mM HEPES pH 7.5, 500 mM NaCl, 5 mM imidazole, 5% glycerol, 0.5 mM Tris (2-carboxyethyl) phosphine (TCEP), cOmplete Protease Inhibitor Tablet (Roche)) and lysed by microfludics high pressure homogenizer (UH-06, Union-Biotech). Proteins were purified using […] chromatography (His FF column, Bestchrom) and eluted stepwise in binding buffer with 20-300 mM imidazole. Removal of the hexahistidine tag was performed at 4° C. overnight using recombinant TEV protease and reacted with BirA to obtain the corresponding biotinylated-AAK1, BIKE or GAK proteins. Further separated in the reverse Strep column (Strep-Tactin® XT, IBA). The Biotin elution sample was collected containing untagged biotinylated protein was then purified by Ion-exchange chromatography (Mono Q 10/100 GL, Cytiva) and Size-exclusion chromatography (HiLoad 16/600 Superdex 200 pg, Cytiva). The pure protein was stored in a storage buffer 50 mM HEPES (pH 7.5), 300 mM NaCl, 5% glycerol at −80° C. Protein were characterized by SDS-PAGE, LC-MS and aSEC.
This example describes one illustrative method for determining the IC50 of the compounds of the present invention against AAK1 (amino acids T27-A365). AAK1 protein was dissolved at 20 nM in 1× enzyme solution (50 mM HEPES pH7.5, 10 mM MgCl2, 1 mM DTT, 1% glycerol, 0.5 mM EGTA, 0.01% Briji35, 0.02% BSA) and 12.5 ul was incubated with 250 nl DMSO or 250 nl compound in DMSO at 25° C. for 15 min. The reaction was started by addition of 12.5 ul of 30 uM AQT0759 (Assayquant, CSKS-AQT0759B) and 70 uM ATP which were diluted in 1× substrate dilution buffer (50 mM HEPES pH7.5, 10 mM MgCl2, 1 mM DTT, 1% glycerol, 0.5 mM EGTA, 0.01% Briji35).

The next assay concerns the target AAK1 (Homo sapiens, UniProt Q2M2I8). As to the kind of experiment: pAP2M1 cell-based assay (in-cell Western). Particulars: Hela cells co-transfected with AP2M1 and AAK1, 3 hr treatment; class symbols; read-out: AAK1 In-cell Western: IC50. The source says:
pAP2M1 Cell-Based Assay (in-Cell Western):
The plate was read on Licor Odyssey CLx imaging system (LICOR) to acquire fluorescence intensity at 700 channel and 800 channel.
Data analysis: Fluorescence intensity at 700 channel served as internal standard and 800 channel were normalized with 700 channel.

T1 sequence (Q2M2I8 27-365): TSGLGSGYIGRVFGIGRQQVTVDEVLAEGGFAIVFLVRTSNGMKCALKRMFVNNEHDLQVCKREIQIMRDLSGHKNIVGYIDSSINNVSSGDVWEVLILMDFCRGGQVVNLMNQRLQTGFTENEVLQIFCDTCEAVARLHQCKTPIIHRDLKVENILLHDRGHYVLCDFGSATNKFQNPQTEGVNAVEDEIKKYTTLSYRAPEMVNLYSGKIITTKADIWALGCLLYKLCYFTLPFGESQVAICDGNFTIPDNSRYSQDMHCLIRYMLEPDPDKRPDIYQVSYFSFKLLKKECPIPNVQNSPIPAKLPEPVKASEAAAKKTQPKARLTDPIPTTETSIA
AAK1, sequence (Q2M2I8 whole entry): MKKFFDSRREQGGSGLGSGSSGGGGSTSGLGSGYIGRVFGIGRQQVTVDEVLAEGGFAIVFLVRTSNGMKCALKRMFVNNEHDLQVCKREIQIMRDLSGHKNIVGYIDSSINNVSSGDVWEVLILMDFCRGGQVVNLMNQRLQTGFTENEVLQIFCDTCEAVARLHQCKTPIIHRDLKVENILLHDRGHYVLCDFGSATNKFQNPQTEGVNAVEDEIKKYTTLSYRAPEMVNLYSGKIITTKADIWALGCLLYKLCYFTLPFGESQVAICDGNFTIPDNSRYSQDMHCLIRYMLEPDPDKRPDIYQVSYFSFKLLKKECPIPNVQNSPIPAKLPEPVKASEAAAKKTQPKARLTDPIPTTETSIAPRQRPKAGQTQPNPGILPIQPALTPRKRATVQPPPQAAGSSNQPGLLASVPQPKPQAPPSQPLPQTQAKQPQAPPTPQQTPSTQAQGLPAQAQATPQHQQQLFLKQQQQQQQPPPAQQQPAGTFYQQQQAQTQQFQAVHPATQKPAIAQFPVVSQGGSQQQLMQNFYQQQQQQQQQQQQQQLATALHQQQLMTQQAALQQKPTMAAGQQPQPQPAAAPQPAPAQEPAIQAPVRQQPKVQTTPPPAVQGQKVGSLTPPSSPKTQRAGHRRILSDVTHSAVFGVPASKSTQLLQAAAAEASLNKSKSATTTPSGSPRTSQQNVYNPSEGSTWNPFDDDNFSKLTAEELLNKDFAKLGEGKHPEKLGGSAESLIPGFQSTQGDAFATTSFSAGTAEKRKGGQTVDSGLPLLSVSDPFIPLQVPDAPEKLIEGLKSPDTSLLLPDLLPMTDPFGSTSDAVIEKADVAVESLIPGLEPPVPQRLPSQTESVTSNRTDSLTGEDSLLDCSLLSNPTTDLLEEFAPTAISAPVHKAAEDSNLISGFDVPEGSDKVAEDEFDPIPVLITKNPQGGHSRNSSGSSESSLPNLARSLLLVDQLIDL

As to `NC(=O)[C@@H]1CN(c2ccn3ncc(-c4cccnc4OC4CC4)c3n2)CCN1C(=O)O[C@@H]1CNC(=O)C1` [Compound I-41-6, (S)-5-Oxopyrrolidin-3-yl-(S)-2-carbamoyl-4-(3-(2-cyclopropoxypyridin-3-yl)pyrazolo[1,5-a]pyrimidin-5-yl)piperazine-1-carboxylate], the figures for the IC50 (in assay [1]; on AAK1) were 151 to 500 nM and above 1500 nM, respectively.
On the same counts, the results for `O=C1NCC[C@H]1OC(=O)N1CCN(c2ccn3ncc(-c4cccnc4OC4CC4)c3n2)CC1` [Compound I-23, [(3R)-2-oxopyrrolidin-3-yl]-4-[3-[2-(cyclopropoxy)-3-pyridyl]pyrazolo[1,5-a]pyrimidin-5-yl]piperazine-1-carboxylate] are 51 to 150 nM and above 1500 nM.
On to `CN1CC(Oc2ncccc2-c2cnn3ccc(N4CCN(C(=O)O[C@@H]5CNC(=O)C5)CC4)nc23)C1` [Compound I-44, (S)-5-Oxopyrrolidin-3-yl 4-(3-(2-((1-methylazetidin-3-yl)oxy)pyridin-3-yl)pyrazolo[1,5-a]pyrimidin-5-yl)piperazine-1-carboxylate], for which the IC50 (in assay [1]; on AAK1) was above 1500 nM throughout.
For `CC1(OC(=O)N2CCN(c3ccn4ncc(-c5cccnc5OC5CCC5)c4n3)CC2)COC1` [Compound I-17, (3-Methyloxetan-3-yl) 4-[3-[2-(cyclobutoxy)-3-pyridyl]pyrazolo[1,5-a]pyrimidin-5-yl]piperazine-1-carboxylate], the values for the IC50 (in assay [1]; at AAK1) were 1 to 50 nM and 501 to 1500 nM, respectively.
On the same counts, the results for `COc1cn2ncc(-c3cccnc3OC3CC3)c2nc1N1CCN(C(=O)O[C@H]2CC(=O)N(C)C2)CC1` [Compound I-110-9, [(3S)-1-methyl-5-oxo-pyrrolidin-3-yl]-4-[3-[2-(cyclopropoxy)-3-pyridyl]-6-methoxy-pyrazolo[1,5-a]pyrimidin-5-yl]piperazine-1-carboxylate] are above 1500 nM and above 1500 nM.
In the case of `CN1C[C@@H](OC(=O)N2CCN(c3nc4c(-c5cccnc5OC5CC5)cnn4cc3O)CC2)CC1=O` [Compound I-110, [(3S)-1-methyl-5-oxo-pyrrolidin-3-yl]-4-[3-[2-(cyclopropoxy)-3-pyridyl]-6-hydroxy-pyrazolo[1,5-a]pyrimidin-5-yl]piperazine-1-carboxylate], the IC50 (in assay [1]; on AAK1) was above 1500 nM each time.
For the molecule `Cc1cn2ncc(-c3cccnc3OC3CC3)c2nc1N1CCN(C(=O)O[C@H]2CC(=O)N(C)C2)CC1` [Compound I-111, [(3S)-1-methyl-5-oxo-pyrrolidin-3-yl]-4-[3-[2-(cyclopropoxy)-3-pyridyl]-6-methyl-pyrazolo[1,5-a]pyrimidin-5-yl]piperazine-1-carboxylate], the IC50 was 501 to 1500 nM in assay [1] and above 1500 nM on AAK1.
The matching figures for `O=C(O[C@@H]1CC(=O)N(C2CCNCC2)C1)N1CCN(c2ccn3ncc(-c4cccnc4OC4CC4)c3n2)CC1` [Compound I-33, (R)-5-Oxo-1-(piperidin-4-yl)pyrrolidin-3-yl 4-(3-(2-cyclopropoxypyridin-3-yl)pyrazolo[1,5-a]pyrimidin-5-yl)piperazine-1-carboxylate]: above 1500 nM and above 1500 nM.
On to `CC1(OC(=O)N2CCN(c3ccn4ncc(-c5cccnc5OCC5CCC5)c4n3)CC2)COC1` [Compound I-19, 3-Methyloxetan-3-yl 4-(3-(2-(cyclobutylmethoxy)pyridin-3-yl)pyrazolo[1,5-a]pyrimidin-5-yl)piperazine-1-carboxylate], for which the IC50 was 151 to 500 nM in assay [1] and above 1500 nM at AAK1.
The matching figures for `CC(C)(C)OC(=O)N1CC(Nc2ncccc2-c2cnn3ccc(N4CCN(C(=O)O[C@@H]5CNC(=O)C5)CC4)nc23)C1` [Compound I-48, [(3S)-5-oxopyrrolidin-3-yl]4-[3-[2-[(1-tert-butoxycarbonylazetidin-3-yl)amino]-3-pyridyl]pyrazolo[1,5-a]pyrimidin-5-yl]piperazine-1-carboxylate]: 501 to 1500 nM and above 1500 nM.
On the same counts, the results for `C[C@H]1CN(c2ccn3ncc(-c4cccnc4OC4CC4)c3n2)CCN1C(=O)O[C@@H]1CNC(=O)C1` [Compound I-40, [(3S)-5-Oxopyrrolidin-3-yl](2S)-4-[3-[2-(cyclopropoxy)-3-pyridyl]pyrazolo[1,5-a]pyrimidin-5-yl]-2-methyl-piperazine-1-carboxylate] are 151 to 500 nM and above 1500 nM.
On the same counts, the results for `COC(=O)N1CC(Oc2ncccc2-c2cnn3ccc(N4CCN(C(=O)O[C@@H]5CC(=O)N(C6COC6)C5)CC4)nc23)C1` [Compound I-85, [(3R)-1-(oxetan-3-yl)-5-oxo-pyrrolidin-3-yl]-4-[3-[2-(1-methoxycarbonylazetidin-3-yl)oxy-3-pyridyl]pyrazolo[1,5-a]pyrimidin-5-yl]piperazine-1-carboxylate] are 501 to 1500 nM and above 1500 nM.
With `O=C(O[C@H]1CO[C@H]2OCC[C@H]21)N1CCN(c2ccn3ncc(-c4ccccc4OC4CC4)c3n2)CC1` [Compound I-68, [(3aS,4R,6aR)-2,3,3a,4,5,6a-hexahydrofuro[2,3-b]furan-4-yl]4-[3-[2-(cyclopropoxy)phenyl]pyrazolo[1,5-a]pyrimidin-5-yl]piperazine-1-carboxylate], the IC50 was in the range of 51 to 150 nM in assay [1] and 501 to 1500 nM on AAK1.
`O=C1C[C@H](OC(=O)N2CCN(c3ccn4ncc(-c5cccnc5NC5CNC5)c4n3)CC2)CN1` [Compound I-49, (S)-5-oxopyrrolidin-3-yl4-(3-(2-(azetidin-3-ylamino)pyridin-3-yl)pyrazolo[1,5-a]pyrimidin-5-yl)piperazine-1-carboxylate]: the IC50 (in assay [1]; at AAK1) was above 1500 nM in each case.
For the molecule `O=C1C[C@H](OC(=O)N[C@@H]2CCN(c3ccn4ncc(-c5cccnc5OC5CC5)c4n3)C2)CN1` [Compound I-54, [(3S)-5-oxopyrrolidin-3-yl]N-[(3R)-1-[3-[2-(cyclopropoxy)-3-pyridyl]pyrazolo[1,5-a]pyrimidin-5-yl]pyrrolidin-3-yl]carbamate], the IC50 in assay [1] is 501 to 1500 nM; at AAK1, above 1500 nM.
On the same counts, the results for `O=C1NCC[C@@H]1OC(=O)N1CCN(c2ccn3ncc(-c4cccnc4OC4CC4)c3n2)CC1` [Compound I-24, [(3S)-2-Oxopyrrolidin-3-yl]-4-[3-[2-(cyclopropoxy)-3-pyridyl]pyrazolo[1,5-a]pyrimidin-5-yl]piperazine-1-carboxylate] are 51 to 150 nM and above 1500 nM.
On the same counts, the results for `C[C@@]1(OC(=O)N[C@@H]2CCN(c3ccn4ncc(-c5cccnc5OC5CC5)c4n3)C2)CCNC1` [Compound I-56, (R)-3-methylpyrrolidin-3-yl ((R)-1-(3-(2-cyclopropoxypyridin-3-yl)pyrazolo[1,5-a]pyrimidin-5-yl)pyrrolidin-3-yl)carbamate] are 151 to 500 nM and above 1500 nM.
The matching figures for `COC(=O)[C@@H]1CN(c2ccn3ncc(-c4cccnc4OC4CC4)c3n2)CCN1C(=O)O[C@@H]1CNC(=O)C1` [Compound I-41-5, 2-Methyl 1-((S)-5-oxopyrrolidin-3-yl) (S)-4-(3-(2-cyclopropoxypyridin-3-yl)pyrazolo[1,5-a]pyrimidin-5-yl)piperazine-1,2-dicarboxylate]: 151 to 500 nM and above 1500 nM.
Take `COC(=O)N1CC(Oc2ncccc2-c2cnn3ccc(N4CCN(C(=O)O[C@@H]5CC(=O)N(C)C5)CC4)nc23)C1` [Compound I-83, [(3R)-1-methyl-5-oxo-pyrrolidin-3-yl]4-[3-[2-(1-methoxycarbonylazetidin-3-yl)oxy-3-pyridyl]pyrazolo[1,5-a]pyrimidin-5-yl]piperazine-1-carboxylate]: the IC50 in assay [1] lay in the range of 1 to 50 nM; at AAK1 it was 501 to 1500 nM.
On the same counts, the results for `N#C[C@@H]1CN(c2ccn3ncc(-c4cccnc4OC4CC4)c3n2)CCN1C(=O)O[C@@H]1CNC(=O)C1` [Compound I-41, (S)-5-Oxopyrrolidin-3-yl (S)-2-cyano-4-(3-(2-cyclopropoxypyridin-3-yl)pyrazolo[1,5-a]pyrimidin-5-yl)piperazine-1-carboxylate] are 151 to 500 nM and above 1500 nM.
